Measured values: patent US20260125382A1, “COMPOUNDS FOR INHIBITING OR DEGRADING CDK2 AND/OR CDK9 AND MEDICINAL USE THEREOF” (KOREA RESEARCH INSTITUTE OF CHEMICAL TECHNOLOGY, priority 2022, published 2026)

Experiments:
[1] = target: T1, CDK2 (Homo sapiens, UniProt P24941); assay: CDK protein degradation activity (Western blotting), CDK2; type: cell-based; settings: MDA-MB-231 cells, 16 hours, Western blot
T1 construct: endogenous in cells; host or cells: MDA-MB-231
Summary of the method: (§1)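 MDA-MB-231; cmpd 100 nM / 1 μM / 10 μM final vs DMSO, 16 h. Triton X-100 lysates (pH 7.5, phosphatase/protease inhibitors) → SDS-PAGE → Western blot, anti-CDK2, anti-CDK9, tubulin loading control; densitometry.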

[2] = target: T2, CDK9 (Homo sapiens, UniProt P50750); assay: CDK protein degradation activity (Western blotting), CDK9; type: cell-based; settings: MDA-MB-231 cells, 16 hours, Western blot
T2 construct: endogenous in cells; host or cells: MDA-MB-231
T2 sequence (P50750 whole entry): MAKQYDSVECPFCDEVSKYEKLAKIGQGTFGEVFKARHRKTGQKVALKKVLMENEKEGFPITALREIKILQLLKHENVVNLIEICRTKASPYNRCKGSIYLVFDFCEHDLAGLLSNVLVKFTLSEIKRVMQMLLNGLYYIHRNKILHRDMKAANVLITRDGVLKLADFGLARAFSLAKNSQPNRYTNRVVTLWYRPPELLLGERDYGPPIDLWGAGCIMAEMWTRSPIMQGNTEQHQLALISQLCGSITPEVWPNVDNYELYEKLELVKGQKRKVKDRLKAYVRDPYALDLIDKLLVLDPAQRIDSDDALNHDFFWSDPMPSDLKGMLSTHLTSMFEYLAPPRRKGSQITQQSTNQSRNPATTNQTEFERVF
Summary of the method: as §1

[3] = target: T3, CDK2/cyclin A (Homo sapiens, UniProt P24941); assay: CDK protein inhibition, KINOMEscan (Eurofins), CDK2/cyclin A; type: binding; settings: for IC50: Table 17, unit inferred
T3 construct: purchased Eurofins Scientific

SMILES	Enzyme degradation CDK2 (% remaining) @ 0.1 μM [1]	Enzyme degradation CDK2 (% remaining) @ 1 μM [1]	Enzyme degradation CDK2 (% remaining) @ 10 μM [1]	Enzyme degradation CDK9 (% remaining) @ 0.1 μM [2]	Enzyme degradation CDK9 (% remaining) @ 1 μM [2]	Enzyme degradation CDK9 (% remaining) @ 10 μM [2]	CDK2/cyclin A inhibition (%) (at concentration of 1 μM) [3]	IC50 [3] [nM]
Cc1cccc(C(=O)N[C@H]2C[C@H](n3cnc4c(NCC5CCN(C(=O)CCCCCNc6ccc7c(c6)C(=O)N([C@@H]6CCC(=O)NC6=O)C7=O)CC5)ncnc43)C2)n1 [Compound 65, N-((1r,3r)-3-(6-(((1-(6-((2-(2,6-dioxopiperidin-3-yl)-1,3-dioxoisoindolin-5-yl)amino)hexanoyl)piperidin-4-yl)methyl)amino)-9H-purin-9-yl)cyclobutyl)-6-methylpicolinamide]	100%	50%	20%	30%	10%	0%	87	–
Cc1cccc(C(=O)N[C@H]2C[C@H](n3cnc4c(NCC5CCN(CC6CCN(C(=O)CNc7ccc8c(c7)C(=O)N(C7CCC(=O)NC7=O)C8=O)CC6)CC5)ncnc43)C2)n1 (some centres unmarked) [Compound 74, N-((1r,3r)-3-(6-(((1-((1-((2-(2,6-dioxopiperidin-3-yl)-1,3-dioxoisoindolin-5-yl)glycyl)piperidin-4-yl)methyl)piperidin-4-yl)methyl)amino)-9H-purin-9-yl)cyclobutyl)-6-methylpicolinamide]	30%	40%	50%	0/0/0%	0/0/0%	0/0/0%	–	> 10000
Cc1cccc(C(=O)N[C@H]2C[C@H](n3cnc4c(NCC5CCN(C(=O)CCCCCNC(=O)CNc6ccc7c(c6)C(=O)N([C@@H]6CCC(=O)NC6=O)C7=O)CC5)ncnc43)C2)n1 (stereo in doubt) [Compound 61, N-((1r,3r)-3-(6-(((1-(6-(2-((2-(2,6-dioxopiperidin-3-yl)-1,3-dioxoisoindolin-5-yl)amino)acetamido)hexanoyl)piperidin-4-yl)methyl)amino)-9H-purin-9-yl)cyclobutyl)-6-methylpicolinamide]	100%	100%	40%	80%	50%	10%	84	–
O=C1CCC(N2C(=O)c3cccc(NCC(=O)N4CCC(CN5CCN(c6ccc(Nc7ncnc8c7ncn8[C@H]7C[C@@H](NC(=O)Cc8ccccc8)C7)cc6)CC5)CC4)c3C2=O)C(=O)N1 (some centres unmarked) [Compound 176, N-((1s,3s)-3-(6-((4-(4-((1-((2-(2,6-dioxopiperidin-3-yl)-1,3-dioxoisoindolin-4-yl)glycyl)piperidin-4-yl)methyl)piperazin-1-yl)phenyl)amino)-9H-purin-9-yl)cyclobutyl)-2-phenylacetamide]	0/0/0%	0/0/0%	0/0/0%	0/0/0%	0/0/0%	0/0/0%	–	439
Cc1cccc(C(=O)N[C@H]2C[C@@H](n3cnc4c(NCCC5CCN(CC6CCN(C(=O)CNc7ccc8c(c7)C(=O)N(C7CCC(=O)NC7=O)C8=O)CC6)CC5)ncnc43)C2)n1 (some centres unmarked) [Compound 125, N-((1s,3s)-3-(6-((2-(1-((1-((2-(2,6-dioxopiperidin-3-yl)-1,3-dioxoisoindolin-5-yl)glycyl)piperidin-4-yl)methyl)piperidin-4-yl)ethyl)amino)-9H-purin-9-yl)cyclobutyl)-6-methylpicolinamide]	30%	10%	20%	0/0/0%	0/0/0%	0/0/0%	–	1300
